According to the NIST ThermoML archive (doi:10.1021/je1002829):
± gives the expanded uncertainty stated by the source.

Experiment: xn = mol fraction of the nth substance listed
Conditions: for mass density: 101 kPa, Liquid, Pycnometric method

CCC(=O)O [propanoic acid] + O gave a surface tension liquid-gas (293.15 K, x1 = 0.00861) of 53.75 ± 1.2 mN/m, a surface tension liquid-gas (293.15 K, x1 = 0.01457) of 49.8 ± 1.1 mN/m and a surface tension liquid-gas (293.15 K, x1 = 0.02075) of 46.86 ± 1.1 mN/m. It also gave a surface tension liquid-gas (293.15 K, x1 = 0.03268) of 42.79 ± 1 mN/m, a surface tension liquid-gas (293.15 K, x1 = 0.0455) of 39.75 ± 0.96 mN/m and a surface tension liquid-gas (293.15 K, x1 = 0.05436) of 38.2 ± 0.94 mN/m. It also gave a surface tension liquid-gas (293.15 K, x1 = 0.06602) of 36.71 ± 0.91 mN/m, a surface tension liquid-gas (293.15 K, x1 = 0.0747) of 35.93 ± 0.9 mN/m and a surface tension liquid-gas (293.15 K, x1 = 0.0869) of 35.19 ± 0.89 mN/m. The surface tension liquid-gas (293.15 K, x1 = 0.1095) was 34.48 ± 0.88 mN/m, the surface tension liquid-gas (293.15 K, x1 = 0.128) was 34.1 ± 0.88 mN/m and the surface tension liquid-gas (293.15 K, x1 = 0.1494) was 33.68 ± 0.87 mN/m. For the same molecule, the surface tension liquid-gas (293.15 K, x1 = 0.171) was 33.22 ± 0.87 mN/m, the surface tension liquid-gas (293.15 K, x1 = 0.1823) was 32.96 ± 0.86 mN/m and the mass density (293.15 K, x1 = 0.01457) was 1000.94 ± 0.37 kg/m3. It also gave a mass density (293.15 K, x1 = 0.03268) of 1004.5 ± 0.37 kg/m3, a mass density (293.15 K, x1 = 0.05436) of 1008.59 ± 0.42 kg/m3 and a mass density (293.15 K, x1 = 0.0869) of 1014.63 ± 0.49 kg/m3. The mass density (293.15 K, x1 = 0.1019) was 1017.46 ± 0.51 kg/m3, the mass density (293.15 K, x1 = 0.128) was 1020.75 ± 0.48 kg/m3 and the mass density (293.15 K, x1 = 0.171) was 1025.1 ± 0.54 kg/m3. The mass density (293.15 K, x1 = 0.1947) was 1025.78 ± 0.59 kg/m3, the mass density (293.15 K, x1 = 0.2318) was 1026.54 ± 0.64 kg/m3 and the mass density (293.15 K, x1 = 0.2485) was 1026.51 ± 0.68 kg/m3. For the same molecule, the mass density (293.15 K, x1 = 0.2755) was 1026.19 ± 0.69 kg/m3, the mass density (293.15 K, x1 = 0.3043) was 1025.42 ± 0.68 kg/m3 and the mass density (293.15 K, x1 = 0.333) was 1024.97 ± 0.67 kg/m3. For the same molecule, the mass density (293.15 K, x1 = 0.3701) was 1024.09 ± 0.66 kg/m3, the mass density (293.15 K, x1 = 0.4001) was 1023.22 ± 0.7 kg/m3 and the surface tension liquid-gas (298.15 K, x1 = 0.00861) was 52.45 ± 1.1 mN/m. The surface tension liquid-gas (298.15 K, x1 = 0.01457) was 49.01 ± 1.1 mN/m, the surface tension liquid-gas (298.15 K, x1 = 0.02075) was 46.29 ± 1.1 mN/m and the surface tension liquid-gas (298.15 K, x1 = 0.03268) was 42.3 ± 0.99 mN/m. It also gave a surface tension liquid-gas (298.15 K, x1 = 0.0455) of 39.16 ± 0.95 mN/m, a surface tension liquid-gas (298.15 K, x1 = 0.05436) of 37.55 ± 0.93 mN/m and a surface tension liquid-gas (298.15 K, x1 = 0.06602) of 36.04 ± 0.91 mN/m. It also gave a surface tension liquid-gas (298.15 K, x1 = 0.0747) of 35.28 ± 0.89 mN/m, a surface tension liquid-gas (298.15 K, x1 = 0.0869) of 34.59 ± 0.88 mN/m and a surface tension liquid-gas (298.15 K, x1 = 0.1095) of 33.94 ± 0.88 mN/m. The surface tension liquid-gas (298.15 K, x1 = 0.128) was 33.59 ± 0.87 mN/m, the surface tension liquid-gas (298.15 K, x1 = 0.1494) was 33.18 ± 0.87 mN/m and the surface tension liquid-gas (298.15 K, x1 = 0.171) was 32.71 ± 0.86 mN/m. The surface tension liquid-gas (298.15 K, x1 = 0.1823) was 32.45 ± 0.85 mN/m, the mass density (298.15 K, x1 = 0.01457) was 999.46 ± 0.39 kg/m3 and the mass density (298.15 K, x1 = 0.03268) was 1002.95 ± 0.39 kg/m3. The mass density (298.15 K, x1 = 0.05436) was 1006.51 ± 0.43 kg/m3, the mass density (298.15 K, x1 = 0.0869) was 1011.95 ± 0.5 kg/m3 and the mass density (298.15 K, x1 = 0.1019) was 1014.23 ± 0.54 kg/m3. The mass density (298.15 K, x1 = 0.128) was 1017.92 ± 0.54 kg/m3, the mass density (298.15 K, x1 = 0.171) was 1021.28 ± 0.63 kg/m3 and the mass density (298.15 K, x1 = 0.1947) was 1022.21 ± 0.63 kg/m3. For the same molecule, the mass density (298.15 K, x1 = 0.2318) was 1022.48 ± 0.67 kg/m3, the mass density (298.15 K, x1 = 0.2485) was 1022.21 ± 0.68 kg/m3 and the mass density (298.15 K, x1 = 0.2755) was 1021.74 ± 0.69 kg/m3. The mass density (298.15 K, x1 = 0.3043) was 1021.28 ± 0.68 kg/m3, the mass density (298.15 K, x1 = 0.333) was 1020.74 ± 0.68 kg/m3 and the mass density (298.15 K, x1 = 0.3701) was 1019.95 ± 0.7 kg/m3. For the same molecule, the mass density (298.15 K, x1 = 0.4001) was 1018.88 ± 0.72 kg/m3, the surface tension liquid-gas (303.15 K, x1 = 0.00861) was 52.18 ± 1.1 mN/m and the surface tension liquid-gas (303.15 K, x1 = 0.01457) was 48.47 ± 1.1 mN/m. It also gave a surface tension liquid-gas (303.15 K, x1 = 0.02075) of 45.79 ± 1 mN/m, a surface tension liquid-gas (303.15 K, x1 = 0.03268) of 41.69 ± 0.98 mN/m and a surface tension liquid-gas (303.15 K, x1 = 0.0455) of 38.43 ± 0.94 mN/m. For the same molecule, the surface tension liquid-gas (303.15 K, x1 = 0.05436) was 36.83 ± 0.92 mN/m, the surface tension liquid-gas (303.15 K, x1 = 0.06602) was 35.36 ± 0.9 mN/m and the surface tension liquid-gas (303.15 K, x1 = 0.0747) was 34.6 ± 0.89 mN/m. It also gave a surface tension liquid-gas (303.15 K, x1 = 0.0869) of 33.85 ± 0.87 mN/m, a surface tension liquid-gas (303.15 K, x1 = 0.1095) of 33.04 ± 0.86 mN/m and a surface tension liquid-gas (303.15 K, x1 = 0.128) of 32.68 ± 0.86 mN/m. The surface tension liquid-gas (303.15 K, x1 = 0.1494) was 32.43 ± 0.85 mN/m, the surface tension liquid-gas (303.15 K, x1 = 0.171) was 32.27 ± 0.85 mN/m and the surface tension liquid-gas (303.15 K, x1 = 0.1823) was 32.21 ± 0.85 mN/m. For the same molecule, the mass density (303.15 K, x1 = 0.01457) was 997.79 ± 0.4 kg/m3, the mass density (303.15 K, x1 = 0.03268) was 1001.28 ± 0.44 kg/m3 and the mass density (303.15 K, x1 = 0.05436) was 1004.63 ± 0.46 kg/m3. For the same molecule, the mass density (303.15 K, x1 = 0.0869) was 1009.33 ± 0.49 kg/m3, the mass density (303.15 K, x1 = 0.1019) was 1011.41 ± 0.51 kg/m3 and the mass density (303.15 K, x1 = 0.128) was 1014.77 ± 0.56 kg/m3. It also gave a mass density (303.15 K, x1 = 0.171) of 1017.58 ± 0.63 kg/m3, a mass density (303.15 K, x1 = 0.1947) of 1018.26 ± 0.67 kg/m3 and a mass density (303.15 K, x1 = 0.2318) of 1018.39 ± 0.69 kg/m3. It also gave a mass density (303.15 K, x1 = 0.2485) of 1018.12 ± 0.69 kg/m3, a mass density (303.15 K, x1 = 0.2755) of 1017.72 ± 0.7 kg/m3 and a mass density (303.15 K, x1 = 0.3043) of 1017.05 ± 0.71 kg/m3. It also gave a mass density (303.15 K, x1 = 0.333) of 1016.65 ± 0.74 kg/m3, a mass density (303.15 K, x1 = 0.3701) of 1015.5 ± 0.77 kg/m3 and a mass density (303.15 K, x1 = 0.4001) of 1014.2 ± 0.76 kg/m3. For the same molecule, the surface tension liquid-gas (308.15 K, x1 = 0.00861) was 51.48 ± 1.1 mN/m, the surface tension liquid-gas (308.15 K, x1 = 0.01457) was 47.97 ± 1.1 mN/m and the surface tension liquid-gas (308.15 K, x1 = 0.02075) was 45.31 ± 1 mN/m. For the same molecule, the surface tension liquid-gas (308.15 K, x1 = 0.03268) was 41.23 ± 0.98 mN/m, the surface tension liquid-gas (308.15 K, x1 = 0.0455) was 37.89 ± 0.93 mN/m and the surface tension liquid-gas (308.15 K, x1 = 0.05436) was 36.18 ± 0.91 mN/m. It also gave a surface tension liquid-gas (308.15 K, x1 = 0.06602) of 34.61 ± 0.89 mN/m, a surface tension liquid-gas (308.15 K, x1 = 0.0747) of 33.85 ± 0.87 mN/m and a surface tension liquid-gas (308.15 K, x1 = 0.0869) of 33.19 ± 0.87 mN/m. For the same molecule, the surface tension liquid-gas (308.15 K, x1 = 0.1095) was 32.62 ± 0.86 mN/m, the surface tension liquid-gas (308.15 K, x1 = 0.128) was 32.35 ± 0.85 mN/m and the surface tension liquid-gas (308.15 K, x1 = 0.1494) was 32 ± 0.85 mN/m. It also gave a surface tension liquid-gas (308.15 K, x1 = 0.171) of 31.51 ± 0.84 mN/m, a surface tension liquid-gas (308.15 K, x1 = 0.1823) of 31.21 ± 0.84 mN/m and a mass density (308.15 K, x1 = 0.01457) of 996.38 ± 0.41 kg/m3. For the same molecule, the mass density (308.15 K, x1 = 0.03268) was 998.86 ± 0.48 kg/m3, the mass density (308.15 K, x1 = 0.05436) was 1002.08 ± 0.5 kg/m3 and the mass density (308.15 K, x1 = 0.0869) was 1006.91 ± 0.5 kg/m3. For the same molecule, the mass density (308.15 K, x1 = 0.1019) was 1008.86 ± 0.52 kg/m3, the mass density (308.15 K, x1 = 0.128) was 1011.7 ± 0.63 kg/m3 and the mass density (308.15 K, x1 = 0.171) was 1013.89 ± 0.68 kg/m3. For the same molecule, the mass density (308.15 K, x1 = 0.1947) was 1014.09 ± 0.7 kg/m3, the mass density (308.15 K, x1 = 0.2318) was 1014.03 ± 0.73 kg/m3 and the mass density (308.15 K, x1 = 0.2485) was 1013.78 ± 0.72 kg/m3. It also gave a mass density (308.15 K, x1 = 0.2755) of 1013.1 ± 0.74 kg/m3, a mass density (308.15 K, x1 = 0.3043) of 1012.52 ± 0.75 kg/m3 and a mass density (308.15 K, x1 = 0.333) of 1011.57 ± 0.81 kg/m3. The mass density (308.15 K, x1 = 0.3701) was 1010.29 ± 0.82 kg/m3 and the mass density (308.15 K, x1 = 0.4001) was 1009.37 ± 0.78 kg/m3.
